Reference: patent US11412737B2, “Mixtures of beflubutamid or optically enriched forms thereof with a second herbicide” (FMC Corporation, priority 2016, dated 2022)

Experiments:
Experiment in all cases: pre-emergence test, weed control
[1] = system: Common lambsquarters (CHEAL); assay type: in vivo, Chenopodium album; conditions: pre-emergent
Experimental: (§1) Test compositions containing the test compounds were diluted with water to provide the appropriate test rate concentrations.
(§2) For pre-emergence testing, four disposable fiber flats (6 inch by 10 inch) for each rate of application of each herbicide solution were filled with top soil, to which seeds of each species were planted in furrows made by a template pressed on the top of the soil. The furrows were covered with soil after planting the seed and were watered well before application of the test compounds.
(§3) Fiber flats designated for treatment were placed in a spray chamber having a static platform and a movable sprayer and the height of the spray nozzle was 10.5 inches above the soil level. Once the sprayer was calibrated using water for spray volume of 30 gallons per acre, flats were sprayed with sprayer at a speed to receive a coverage equivalent of 30 gallons per acre. The application rates are those shown in the Tables below for the individual herbicidal solutions and the herbicide compositions of this invention. The pre-emergence flats were immediately placed in the greenhouse and watered lightly after treatment. Thereafter they were regularly watered and fertilized for the duration of the test.
(§4) The control of weeds was evaluated in each experimental test at 21 for wheat and 28 days after treatment (DAT) for all species. Data were analyzed using Minitab software at 95% confidence interval. The results, shown as an average of the replications, were compared with results observed in untreated control flats in the same tests. Percent control was determined by a method similar to the 0 to 100 rating system disclosed in “Research Methods in Weed Science,” 2nd ed., B. Truelove, Ed.; Southern Weed Science Society; Auburn University, Auburn, Ala., 1977. The rating system is as follows in Table 1.

[2] = system: Green foxtail (SETVI); assay type: in vivo, Setaria viridis; conditions: pre-emergent, 28 DAT, (+)-BFL >95% e.e., rate g ai/ha by row: r6 62.5, r7 125, r8 62.5, r9 125, r10 222, r11 445, r12 22.5, r13 45, r14 62.5+62.5, r15 125+62.5, r16 62.5+125, r17 125+125, r18 62.5+222, r19 125+222, r20 62.5+445, r21 125+445, r22 62.5+22.5, r23 125+22.5, r24 62.5+45, r25 125+45
Experimental: as §1, §2, §3, §4

[3] = system: Italian ryegrass (LOLMU); assay type: in vivo, Lolium perenne. multiflorum; conditions: pre-emergent, 28 DAT, (+)-BFL >95% e.e.; rate g ai/ha by row: r6 62.5, r7 125, r8 62.5, r9 125, r10 222, r11 445, r12 22.5, r13 45, r14 62.5+62.5, r15 125+62.5, r16 62.5+125, r17 125+125, r18 62.5+222, r19 125+222, r20 62.5+445, r21 125+445, r22 62.5+22.5, r23 125+22.5, r24 62.5+45, r25 125+45
Experimental: as §1, §2
Fiber flats designated for treatment were placed in a spray chamber having a static platform and a movable sprayer and the height of the spray nozzle was 10.5 inches above the soil level. Once the sprayer was calibrated using water for spray volume of 30 gallons per acre, flats were sprayed with sprayer at a speed to receive a coverage equivalent of 30 gallons per acre. […]
The control of weeds was evaluated in each experimental test at 21 for wheat and 28 days after treatment (DAT) for all species. Data were analyzed using Minitab software at 95% confidence interval. […] Percent control was determined by a method similar to the 0 to 100 rating system disclosed in “Research Methods in Weed Science,” 2nd ed., B. Truelove, Ed.; Southern Weed Science Society; Auburn University, Auburn, Ala., 1977. […]

[4] = system: Wild oat (AVEFA); assay type: in vivo, Avena fatua; conditions: pre-emergent, 28 DAT, (+)-BFL >95% e.e., rate g ai/ha by row: r6 62.5, r7 125, r8 62.5, r9 125, r10 222, r11 445, r12 22.5, r13 45, r14 62.5+62.5, r15 125+62.5, r16 62.5+125, r17 125+125, r18 62.5+222, r19 125+222, r20 62.5+445, r21 125+445, r22 62.5+22.5, r23 125+22.5, r24 62.5+45, r25 125+45
Experimental: as §1, §2, §3, §4

[5] = system: Blackgrass (ALOMY); assay type: in vivo; conditions: pre-emergent, 28 DAT, (+)-BFL >95% e.e., rate g ai/ha by row: r6 62.5, r7 125, r8 62.5, r9 125, r10 222, r11 445, r12 22.5, r13 45, r14 62.5+62.5, r15 125+62.5, r16 62.5+125, r17 125+125, r18 62.5+222, r19 125+222, r20 62.5+445, r21 125+445, r22 62.5+22.5, r23 125+22.5, r24 62.5+45, r25 125+45
Experimental: as §1, §2, §3, §4

[6] = system: Yellow foxtail (SETLU); assay type: in vivo; conditions: pre-emergent, 28 DAT, (+)-BFL >95% e.e., rate g ai/ha by row: r6 62.5, r7 125, r8 62.5, r9 125, r10 222, r11 445, r12 22.5, r13 45, r14 62.5+62.5, r15 125+62.5, r16 62.5+125, r17 125+125, r18 62.5+222, r19 125+222, r20 62.5+445, r21 125+445, r22 62.5+22.5, r23 125+22.5, r24 62.5+45, r25 125+45
Experimental: as §1, §2, §3, §4

## CC[C@@H](Oc1ccc(F)c(C(F)(F)F)c1)C(=O)NCc1ccccc1 [(+)-BFL]
[1]; applied alone, 28 DAT (Table 17)
  weed control of common lambsquarters (CHEAL): low level weed control
[1]; 28 DAT, (+)-BFL >95% e.e., rate g ai/ha by row: r6 62.5, r7 125, r8 62.5, r9 125, r10 222, r11 445, r12 22.5, r13 45, r14 62.5+62.5, r15 125+62.5, r16 62.5+125, r17 125+125, r18 62.5+222, r19 125+222, r20 62.5+445, r21 125+445, r22 62.5+22.5, r23 125+22.5, r24 62.5+45, r25 125+45
  percentage of weed control, CHEAL: 37%
[2]; 62.5 g ai/ha
  percentage of weed control, SETVI: 7%
[2]; 125 g ai/ha
  percentage of weed control, SETVI: 8%
[3]
  percentage of weed control, LOLMU: 1%
[4]; 62.5 g ai/ha
  percentage of weed control, AVEFA: 0%
[4]; 125 g ai/ha
  percentage of weed control, AVEFA: 1%
[5]; 62.5 g ai/ha
  percentage of weed control, ALOMY: 2%
[5]; 125 g ai/ha
  percentage of weed control, ALOMY: 5%
[6]; 62.5 g ai/ha
  percentage of weed control, SETLU: 0%
[6]; 125 g ai/ha
  percentage of weed control, SETLU: 5%
